Test results reported in patent US5684151A, “1-arylsulphonyl, arylcarbonyl and 1-arylphosphonyl-3-phenyl-1,4,5,6-tetrahydropyridazines” (priority 1995, dated 1997).
Read-outs that look alike come from different tables or passages of the source.

Assays:
[1] = target: T1, progestin receptor from rabbit uterus (Oryctolagus cuniculus, UniProt P06186); assay: Progestin receptor binding (3H-R5020 displacement); conditions: rabbit uterine cytosol, 4° C., 18 h, read-out: IC50: Binding affinity for the progestin receptor from rabbit uterus
T1 construct: Cytosolic progestin receptor were obtained by mixing rabbit uterine tissue with a Tris buffer; from tissue; host or cells: rabbit uterus cytosol
T1 sequence (P06186 whole entry): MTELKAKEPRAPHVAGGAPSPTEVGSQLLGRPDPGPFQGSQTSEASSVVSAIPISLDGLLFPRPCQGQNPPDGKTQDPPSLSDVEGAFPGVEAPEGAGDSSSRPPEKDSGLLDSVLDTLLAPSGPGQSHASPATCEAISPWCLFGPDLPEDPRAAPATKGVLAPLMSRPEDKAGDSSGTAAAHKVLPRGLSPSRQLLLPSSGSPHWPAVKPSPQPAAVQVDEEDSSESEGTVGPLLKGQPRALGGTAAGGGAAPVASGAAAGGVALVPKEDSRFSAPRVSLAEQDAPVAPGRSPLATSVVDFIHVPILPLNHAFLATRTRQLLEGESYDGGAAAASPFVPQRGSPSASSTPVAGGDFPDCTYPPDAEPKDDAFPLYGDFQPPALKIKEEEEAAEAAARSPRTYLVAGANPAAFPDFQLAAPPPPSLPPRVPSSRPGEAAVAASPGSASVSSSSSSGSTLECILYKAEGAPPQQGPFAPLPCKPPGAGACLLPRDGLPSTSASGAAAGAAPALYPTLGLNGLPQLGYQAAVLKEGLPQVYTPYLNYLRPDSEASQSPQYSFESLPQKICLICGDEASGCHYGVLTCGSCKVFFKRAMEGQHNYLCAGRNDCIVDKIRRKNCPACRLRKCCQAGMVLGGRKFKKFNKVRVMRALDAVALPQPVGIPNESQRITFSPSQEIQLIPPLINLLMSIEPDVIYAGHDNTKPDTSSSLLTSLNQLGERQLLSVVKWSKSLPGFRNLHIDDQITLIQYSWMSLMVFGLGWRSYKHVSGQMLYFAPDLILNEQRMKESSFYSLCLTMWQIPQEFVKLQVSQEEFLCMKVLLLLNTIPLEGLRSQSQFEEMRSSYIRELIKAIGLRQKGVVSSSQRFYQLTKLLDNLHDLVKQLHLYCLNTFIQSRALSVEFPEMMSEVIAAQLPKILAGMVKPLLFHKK
Experimental: A progestin initiates a biological response by first binding to a progestin receptor. Affinity for progestin receptors was determined by measuring the ability of compounds to displace a progestin radioligand from those receptors in vitro. Cytosolic progestin receptor were obtained by mixing rabbit uterine tissue with a Tris buffer [0.1M Tris-Hcl, 1 mM Na2 EDTA, 1 mM dithiothreotol, 1 mM sodium molybdate, 1% glycerol, pH 7.4]. The tissue/buffer mixture was homogenized under ice-cold conditions. The homogenate was then centrifuged and the supernatant (cytosol preparation) was decanted and stored at -70° C. and thawed prior to use. The competitive binding assay was performed by mixing ^3 H-R5020, a progestin radioligand, with cytosol preparation and various concentrations of test compounds (prepared in DMSO with a final 5% DMSO concentration). This mixture was then incubated at 4° C. for about 18 hours. Non-specific binding was determined using an unlabelled ligand in excess. After the incubation period, the radioligand bound to receptor was separated from free radioligand using dextran-coated charcoal. The amount of bound radioligand was then determined by liquid scintillation counting. The data were expressed as the concentration of test compound that displaced 50% of the radioligand from the receptor (IC50)
Aspects of the application used in this procedure are described in the following: J. L. McGuire et al., Biochemistry 13, 319, 1974.

[2] = test system: mouse (MC3T3-E1) and human (TE-85) osteoblast-line cells; type: cell-based
From the text: Compounds of the present invention have utility to treat osteoporosis through enhancement of bone calcification rather than traditional approaches which generally involve inhibition of bone degeneration or resorption. The compounds of the present invention have been evaluated as stimulators of proliferation of osteoblast cell and chick calivaria bone organ culture which is predictive of enhancement of bone mass and bone formation in vivo.
The action of select compounds to stimulate osteoblast growth was measured in culture by estimating the rate of DNA synthesis by the rate of ^3 H-thymidine incorporation into DNA. Only cells undergoing mitosis synthesized new DNA and thus only these cells incorporated the radiolabelled DNA-specific thymidine. The stimulation of the proliferation and differentiation of bone-forming cells, osteoblasts, was a prerequisite for an increase in bone formation and bone mass. The ability of agents to increase osteoblast proliferation and differentiation can be predicted by their action on cultured osteoblast-line cells in vitro. In this test, mouse (MC3T3-E1) and human (TE-85) osteoblast-line cells (American Type Tissue Culture Collection, #CRL 1543, Rockville, Md. cloned by Sudo et al., Koriyama, Japan) were cultured in vitro and the effect of various agents were tested on osteoblast cell proliferation. Cells were harvested from large culture flasks where they were allowed to grow to near confluency using trypsin. The cells were plated into 96 well culture plates, 1600 cells in 100 μL per well in Dulbencos Modified Eagle's Medium (DMEM) with 25 mM HEPES buffer, L-glutamine (584 mg/L); D-glucose (4.5 g/L) supplemented with fetal bovine sera (10%); penicillin (100 units/mL) and streptomycin (100 mcg/mL); sodium pyruvate (10 μM final concentration). The cells were allowed to plate overnight in DMEM containing 10% fetal bovine sera at 37° C. in an atmosphere of 5% CO2/95% air. Following their placement into 96 well culture plates all the osteoblast-line cells, either the MC3T3-E1 or the TE-85 cell lines, were allowed an additional 24 hours preincubation period in media containing only 0.1% fetal bovine sera.
Twenty hours later, a 20 μL aliquot of media containing 0.4 μCi of ^3 H-thymidine was added to each culture well. The cells were then incubated an additional 4 hours. The incubation was terminated by aspirating the media and washing with HBSS (Hank's Balanced Salt Solution). The cells were then treated with 100 μL of 0.5% trypsin and 5.3 mM EDTA for 30 minutes at room temperature. The cells were then aspirated onto glass fiber filter and washed with water. The radioactivity on the filters was quantified by liquid scintillation spectroscopy. The rate of ^3 H-thymidine incorporation into DNA was then utilized as an index of cell proliferation. The results are shown in Table 13 expressed as % times control where the control is 100%. […]

## CCCCc1ccc(C2=NN(S(=O)(=O)c3ccccc3)CCC2)cc1 [Compound 76]
[1]
  IC50: 10000 nM

## O=S(=O)(c1ccc(F)cc1)N1CCCC(c2ccc(Cl)c(Cl)c2)=N1 [Compound 106]
[1]
  IC50: 7.11 nM

## O=S(=O)(c1ccc(F)cc1)N1CCCC(c2ccc(Cl)cc2)=N1 [Compound 17]
[1]
  IC50: 48 nM

## CC1CC(c2ccccc2)=NN(S(=O)(=O)c2ccc(Br)cc2)C1 (stereo not shown) [Compound 142]
[1]
  IC50: 1620 nM

## O=[N+]([O-])c1ccc(S(=O)(=O)N2CCCC(c3ccc(Cl)c(C(F)(F)F)c3)=N2)cc1 [Compound 128]
[1]
  IC50: 14.2 nM

## O=S(=O)(c1ccccc1)N1CCCC(c2ccc(Cl)c(C(F)(F)F)c2)=N1 [Compound 83]
[1]
  IC50: 4.83 nM

## O=S(=O)(c1ccc(Cl)cc1)N1CCCC(c2ccc3ccccc3c2)=N1 [Compound 117]
[1]
  IC50: 4.97 nM

## O=[N+]([O-])c1cc(S(=O)(=O)N2CCCC(c3ccccc3)=N2)ccc1Cl [Compound 58]
[1]
  IC50: 444 nM

## COC(=O)CCCOc1ccc(Br)cc1S(=O)(=O)N1CCCC(c2ccc(Cl)c(Cl)c2)=N1 [Compound 136, 3-(3,4-dichlorophenyl)-1-(2-(3-carbomethoxypropxy)-5-bromobenzenesulphonyl)-1,4,5,6-tetrahydropyridazine]
[1]
  IC50: 70 nM

## O=S(=O)(c1ccc(F)cc1F)N1CCCC(c2ccccc2)=N1 [Compound 59]
[1]
  IC50: 455 nM

## O=S(=O)(c1cc(Cl)c(Cl)cc1Cl)N1CCCC(c2ccc(Cl)c(Cl)c2)=N1 [Compound 107]
[1]
  IC50: 7.45 nM

## O=[N+]([O-])c1ccc(S(=O)(=O)N2CCCC(c3ccccc3)=N2)cc1 [Compound 53]
[1]
  IC50: 2200 nM

## O=S(=O)(c1cc(Cl)ccc1Cl)N1CCCC(c2cccc(Cl)c2)=N1 [Compound 91]
[1]
  IC50: 2.39 nM

## CC1CC(c2ccccc2)=NN(C(=O)c2ccc(Cl)c(Cl)c2)C1 (racemic) [Compound 233, (R,S)-1-(3,4-dichlorobenzoyl)-5-methyl-3-phenyl-1,4,5,6-tetrahydropyridazine]
[2]; 10^-7
  Osteoblast Cell Proliferation, 3H-thymidine incorporation vs control (100%): 130%
[2]; 10^-8
  Osteoblast Cell Proliferation, 3H-thymidine incorporation vs control (100%): 132%
[2]; 10^-9
  Osteoblast Cell Proliferation, 3H-thymidine incorporation vs control (100%): 130%
[2]; 10^-10
  Osteoblast Cell Proliferation, 3H-thymidine incorporation vs control (100%): 138%

## S=C(c1ccc(Cl)c(Cl)c1)N1CCCC(c2ccc(Cl)c(Cl)c2)=N1 [Compound 243]
[2]; 10^-7
  Osteoblast Cell Proliferation, 3H-thymidine incorporation vs control (100%): 118%
[2]; 10^-8
  Osteoblast Cell Proliferation, 3H-thymidine incorporation vs control (100%): 92%
[2]; 10^-9
  Osteoblast Cell Proliferation, 3H-thymidine incorporation vs control (100%): 96%
[2]; 10^-10
  Osteoblast Cell Proliferation, 3H-thymidine incorporation vs control (100%): 89%

## S=C(c1cc(Cl)cc(Cl)c1)N1CCCC(c2ccc(Cl)c(Cl)c2)=N1 [Compound 244]
[2]; 10^-7
  Osteoblast Cell Proliferation, 3H-thymidine incorporation vs control (100%): 119%
[2]; 10^-8
  Osteoblast Cell Proliferation, 3H-thymidine incorporation vs control (100%): 134%
[2]; 10^-9
  Osteoblast Cell Proliferation, 3H-thymidine incorporation vs control (100%): 129%
[2]; 10^-10
  Osteoblast Cell Proliferation, 3H-thymidine incorporation vs control (100%): 144%

## O=S(=O)(/C=C/c1ccc2ccccc2c1)N1CCCC(c2ccc(Cl)c(Cl)c2)=N1 [Compound 171]
[2]; 10^-6
  Osteoblast Cell Proliferation, 3H-thymidine incorporation vs control (100%): 72%
[2]; 10^-7
  Osteoblast Cell Proliferation, 3H-thymidine incorporation vs control (100%): 110%
[2]; 10^-8
  Osteoblast Cell Proliferation, 3H-thymidine incorporation vs control (100%): 121%
[2]; 10^-9
  Osteoblast Cell Proliferation, 3H-thymidine incorporation vs control (100%): 118%
[2]; 10^-10
  Osteoblast Cell Proliferation, 3H-thymidine incorporation vs control (100%): 129%

## CS(=O)(=O)c1ccc(S(=O)(=O)N2CCCC(c3ccc(Cl)c(Cl)c3)=N2)cc1 [Compound 275, 3-(3,4-Dichlorophenyl)-1-(4-methylsulfonylbenzenesulfonyl)-1,4,5,6-tetrahydropyridazine]
[2]; 10^-7
  Osteoblast Cell Proliferation, 3H-thymidine incorporation vs control (100%): 145%
[2]; 10^-8
  Osteoblast Cell Proliferation, 3H-thymidine incorporation vs control (100%): 153%
[2]; 10^-9
  Osteoblast Cell Proliferation, 3H-thymidine incorporation vs control (100%): 128%
[2]; 10^-10
  Osteoblast Cell Proliferation, 3H-thymidine incorporation vs control (100%): 136%
